Source: patent US6495591B1, “Fungal efflux pump inhibitors” (Essential Therapeutics, Inc., priority 1997, dated 2002)
In brackets after ≈: the same amount, converted by molar mass.

How the values were obtained:
[1] = test system: C. albicans YEM-24 (CDR1, CDR2 deleted); assay: microbe, parasite or virus in culture; assay type: cell-based
[2] = test system: C. albicans YEM-15 (CDR1 and CDR2 overexpressor); assay: microbe, parasite or virus in culture; assay type: cell-based; settings: Candida albicans, read-out: MIC Mb alone
[3] = test system: C. albicans YEM-11 (BEN overexpressor); assay: microbe, parasite or virus in culture; assay type: cell-based; settings: Candida albicans, read-out: MIC Mb alone
[4] = Cytotoxicity TC50 in K-562; assay type: cell-based; settings: human, k-562 cells; compound alone
[5] = test system: S. cerevisiae YEM-38 (FLU1 introduced); assay: microbe, parasite or virus in culture; assay type: cell-based; settings: Saccharomyces cerevisiae, read-out: MIC Mb alone
C. albicans YEM-13 (BEN) = assay type: cell-based
[6] = test system: P388/ADM, adriamycin resistant subline; assay: Adriamycin cytotoxicity (MTT), P-glycoprotein assay
Method: (§1) The inhibitory effect of milbemycin β1 against the mammalian P-glycoprotein multi-drug resistant pump was determined following the procedure described by Tsuruo et al (Cancer Res., 1981. 41:1967-1972) with slight modification. The cytotoxicity of antitumor agent, adriamycin, against adriamycin sensitive P388 cell line (mouse leukemia) and its adriamycin resistant subline line (P388/ADM) was measured in the presence of various concentrations of milbemycin β1. […] The assay is performed in serum-free media containing 20 μM of 2-mercaptoethanol. Chemosensitivity to adriamycin was determined […] based on the reduction of MTT (3-[4,5-dimethylthiazol-2-yl]-2,5-diphenyltetrazolium bromide) into blue formazan.

[7] = test system: P388 cell line (mouse leukemia), adriamycin sensitive; assay: as above
Method: as §1

[8] = test system: C. albicans YEM-14 (low level CDR1 expressor); assay: microbe, parasite or virus in culture; assay type: cell-based
[9] = test system: C. glabrata YEM-19 (CgCDR overexpression, higher than YEM-17); assay: microbe, parasite or virus in culture; assay type: cell-based
CDR1 efflux pump = CDR1 efflux pump (Candida albicans, UniProt P43071); assay: Follow-up evaluation of screening hit, efflux pump inhibition; settings: follow-up evaluation of screen hit
Method: An exemplary screen uses C. albicans (e.g., ATCC10231) grown in YPD medium (medium described in “Guide to Yeast Genetics and Molecular Biology”, in Methods in Enzymolopy, vol. 194, pp.13, 1991,; Academic Press; Ed. C. Guthrie and G. Fink) at 30° C. […] Test and control cultures are inoculated with log-phase cells to provide approximately 10^3 CFU/ml. Cultures are incubated at 30° C. for 20-22 hrs. Cell concentration is determined by taking the OD600.

[10] = test system: C. glabrata YEM-17 (CgCDR overexpressor); assay: microbe, parasite or virus in culture; assay type: cell-based
[11] = test system: S. cerevisiae YEM-40 (CgCDR, MF, introduced); assay: microbe, parasite or virus in culture; assay type: cell-based; settings: Saccharomyces cerevisiae, read-out: MIC Mb alone
[12] = test system: C. albicans YEM-20 (CDR1 deleted); assay: microbe, parasite or virus in culture; assay type: cell-based
[13] = test system: C. albicans YEM-12 (low level CDR1 expressor); assay: microbe, parasite or virus in culture; assay type: cell-based
[14] = test system: C. albicans YEM-21 (BEN deleted); assay: microbe, parasite or virus in culture; assay type: cell-based
[15] = test system: C. glabrata YEM-18 (low level CgBEN and CgCDR expression); assay: microbe, parasite or virus in culture; assay type: cell-based
C. neoformans = assay: microbe, parasite or virus in culture; assay type: cell-based, Cryptococcus neoformans
C. tropicalis = assay: microbe, parasite or virus in culture; assay type: cell-based
[16] = Candida albicans, read-out: MIC Mb alone
[17] = Nakaseomyces glabratus, read-out: MIC of milbemycin β1 (MB) alone

Sequence of CDR1 efflux pump (P43071 whole entry): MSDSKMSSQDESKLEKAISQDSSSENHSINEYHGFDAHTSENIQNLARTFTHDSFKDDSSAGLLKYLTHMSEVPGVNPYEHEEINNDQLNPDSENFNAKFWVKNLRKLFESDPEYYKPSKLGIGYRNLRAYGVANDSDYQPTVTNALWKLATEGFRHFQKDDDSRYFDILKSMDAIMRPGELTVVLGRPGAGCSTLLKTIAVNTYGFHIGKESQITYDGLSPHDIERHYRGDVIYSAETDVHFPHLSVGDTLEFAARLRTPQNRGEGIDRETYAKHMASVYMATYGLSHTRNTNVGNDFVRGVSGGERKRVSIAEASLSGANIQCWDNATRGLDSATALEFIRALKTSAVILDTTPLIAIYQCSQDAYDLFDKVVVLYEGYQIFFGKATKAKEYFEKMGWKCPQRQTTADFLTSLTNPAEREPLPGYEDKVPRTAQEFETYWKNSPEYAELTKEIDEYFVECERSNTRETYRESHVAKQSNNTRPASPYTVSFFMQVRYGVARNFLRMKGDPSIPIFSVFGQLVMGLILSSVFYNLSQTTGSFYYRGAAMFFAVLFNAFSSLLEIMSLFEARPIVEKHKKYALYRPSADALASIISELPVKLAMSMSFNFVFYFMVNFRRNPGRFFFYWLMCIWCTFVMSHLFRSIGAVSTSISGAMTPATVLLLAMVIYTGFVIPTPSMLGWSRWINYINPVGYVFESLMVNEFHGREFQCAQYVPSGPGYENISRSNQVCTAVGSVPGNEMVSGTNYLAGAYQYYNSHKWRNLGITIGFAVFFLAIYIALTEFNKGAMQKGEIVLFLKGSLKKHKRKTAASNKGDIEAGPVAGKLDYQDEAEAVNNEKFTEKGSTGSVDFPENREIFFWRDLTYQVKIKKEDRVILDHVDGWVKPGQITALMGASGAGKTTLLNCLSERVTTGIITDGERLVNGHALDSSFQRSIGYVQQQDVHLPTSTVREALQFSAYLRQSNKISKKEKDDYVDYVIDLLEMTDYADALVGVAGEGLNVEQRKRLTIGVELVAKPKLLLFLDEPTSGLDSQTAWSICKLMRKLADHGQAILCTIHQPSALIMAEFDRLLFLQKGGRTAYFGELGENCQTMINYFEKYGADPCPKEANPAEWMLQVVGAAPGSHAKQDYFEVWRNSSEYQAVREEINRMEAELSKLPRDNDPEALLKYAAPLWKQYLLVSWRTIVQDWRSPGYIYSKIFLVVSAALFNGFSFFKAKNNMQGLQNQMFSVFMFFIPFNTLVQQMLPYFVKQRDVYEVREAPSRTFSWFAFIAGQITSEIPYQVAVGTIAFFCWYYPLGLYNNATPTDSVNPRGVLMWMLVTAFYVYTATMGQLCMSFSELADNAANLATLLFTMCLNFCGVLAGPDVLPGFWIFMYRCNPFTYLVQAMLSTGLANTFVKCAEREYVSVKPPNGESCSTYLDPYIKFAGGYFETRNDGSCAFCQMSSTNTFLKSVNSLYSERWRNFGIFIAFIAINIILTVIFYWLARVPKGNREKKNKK

Which results are given for `CO[C@H]1C[C@@]2(O)/C(CO)=C/C=C/[C@H](C)C/C(C)=C/C[C@@H]3C[C@@H](C[C@]4(CC[C@H](C)[C@@H](C)O4)O3)OC(=O)[C@@H]2C=C1C` [Compound 6, Milbemycin β1]?
MIC [1, 16]: 16 µg/mL (≈ 29.4 µM); MIC of fluconazole, Flu + Mb (2.5 μg/ml) ([1]; YEM-24, CDR1, CDR2 deleted, milbemycin β1 2.5 μg/ml): 0.125 µg/mL; MIC [2]: 16 µg/mL (≈ 29.4 µM); MIC [3]: 16 µg/mL (≈ 29.4 µM); CC50 [4]: 8 µM; MIC [5]: 8 µg/mL (≈ 14.7 µM); Minimal concentration required to reduce the MIC of fluconazole by sixteen-fold (C. albicans YEM-13 (BEN)): 80 µg/mL; Adriamycin TC50, P388/ADM ([6]; inhibitor 0.06 μg/ml): 1.955 µg/mL; Adriamycin TC50, P388/ADM ([6]; inhibitor 0.25 μg/ml): 0.66 µg/mL; Adriamycin TC50, P388/ADM ([6]; inhibitor 0.5 μg/ml): 0.369 µg/mL; Adriamycin TC50, P388/ADM ([6]; inhibitor 1 μg/ml): 0.215 µg/mL; Adriamycin TC50, P388/ADM ([6]; inhibitor 2 μg/ml): 0.05 µg/mL; Adriamycin TC50, P388/ADM ([6]; inhibitor 3.125 μg/ml): 0.051 µg/mL; Adriamycin TC50, P388/ADM ([6]; inhibitor […]): 0.848 µg/mL; Adriamycin TC50, P388 ([7]; inhibitor 0.06 μg/ml): 0.009 µg/mL; Adriamycin TC50, P388 ([7]; inhibitor 0.25 μg/ml): 0.009 µg/mL; Adriamycin TC50, P388 ([7]; inhibitor 0.5 μg/ml): 0.011 µg/mL; Adriamycin TC50, P388 ([7]; inhibitor 1 μg/ml): 0.009 µg/mL; Adriamycin TC50, P388 ([7]; inhibitor 2 μg/ml): 0.012 µg/mL; Adriamycin TC50, P388 ([7]; inhibitor 3.125 μg/ml): 0.011 µg/mL; Adriamycin TC50, P388 ([7]; inhibitor […]): 0.008 µg/mL; MIC [8, 16]: 16 µg/mL (≈ 29.4 µM); MIC of fluconazole, Flu + Mb (2.5 μg/ml) ([8]; YEM-14, milbemycin β1 2.5 μg/ml): 0.125 µg/mL; MIC [9, 17]: > 64 µg/mL; Fluconazole MIC with 2.5 μg/ml milbemycin β1 ([9]; YEM-19): 8 µg/mL; Fluconazole MIC with 5 μg/ml milbemycin β1 ([9]; YEM-19): 2 µg/mL; Fluconazole MIC with 10 μg/ml milbemycin β1 ([9]; YEM-19): 2 µg/mL; Fluconazole MIC with […] milbemycin β1 ([9]; YEM-19): 32 µg/mL; Inhibition of the CDR1 efflux pump (CDR1 efflux pump): inhibited the CDR1 efflux pump; MIC [10, 17]: > 64 µg/mL; Fluconazole MIC with 2.5 μg/ml milbemycin β1 ([10]; YEM-17): 4 µg/mL; Fluconazole MIC with 5 μg/ml milbemycin β1 ([10]; YEM-17): 2 µg/mL; Fluconazole MIC with 10 μg/ml milbemycin β1 ([10]; YEM-17): 2 µg/mL; Fluconazole MIC with […] milbemycin β1 ([10]; YEM-17): 8 µg/mL; MIC [11]: 8 µg/mL (≈ 14.7 µM); MIC [12, 16]: 16 µg/mL (≈ 29.4 µM); MIC of fluconazole, Flu + Mb (2.5 μg/ml) ([12]; YEM-20, CDR1 deleted, milbemycin β1 2.5 μg/ml): 0.125 µg/mL; MIC [13, 16]: 32 µg/mL (≈ 58.7 µM); MIC of fluconazole, Flu + Mb (2.5 μg/ml) ([13]; YEM-12, milbemycin β1 2.5 μg/ml): 0.25 µg/mL; MIC [14, 16]: 16 µg/mL (≈ 29.4 µM); MIC of fluconazole, Flu + Mb (2.5 μg/ml) ([14]; YEM-21, BEN deleted, milbemycin β1 2.5 μg/ml): 0.03 µg/mL; MIC [15, 17]: > 64 µg/mL; Fluconazole MIC with 2.5 μg/ml milbemycin β1 ([15]; YEM-18): 2 µg/mL; Fluconazole MIC with 5 μg/ml milbemycin β1 ([15]; YEM-18): 2 µg/mL; Fluconazole MIC with 10 μg/ml milbemycin β1 ([15]; YEM-18): 2 µg/mL; Fluconazole MIC with […] milbemycin β1 ([15]; YEM-18): 2 µg/mL

Which results are given for `C/C1=C\C[C@@H]2C[C@@H](C[C@]3(CC[C@H](C)[C@@H](C)O3)O2)OC(=O)[C@@H]2C=C(COC(=O)c3ccc[nH]3)[C@@H](O)[C@H]3OC/C(=C\C=C\[C@H](C)C1)[C@]32O` [Compound 11, Milbemycin α9]?
Fluconazole MIC, + milbemycin α9 (C. neoformans): ≦0.25 μg/ml; Fluconazole MIC, + milbemycin α9 (C. tropicalis): ≦0.25 μg/ml
